Measured values: patent US20120283269A1, “Method and Compositions for Suppression of Aging” (HEALTH RESEARCH INC., priority 2009, published 2012)
“Also recorded” adds a separate entry of the source.

Columns and labels:
Type in all cases: cell-based, human
[1] = test system: HT-p21-9 cells; experiment: Metabolic labeling, [35S]methionine/cysteine incorporation (protein synthesis); details: IPTG-treated cells, 24 h treatment
Description: (§1) FIG. 3. […] Immunoblot. […] Immunoblot was performed as described in the methods for Example 1 below. b. Immunoblot. […] Immunoblot was performed as described in Methods. c. […] After 3 days, cells were washed and incubated in fresh medium w/o drugs for an additional 7 days. Cells were counted and are shown as percent of IPTG alone. d. […] Cells were treated with either IPTG alone (black bars) or IPTG plus rapamycin (white bars) or plus nutlin-3a (grey bars). On days 2, 3, 4, and 5 cells were lysed and protein content per well was measured. […] Cells were labeled with [^35S]methionine/cysteine as described in Methods for Example 1.
FIG. 8. Effects of IPTG and 500 nM rapamycin on protein synthesis ([^35S]methionine/cysteine incorporation). Cells were treated as indicated for 24 hrs and then labeled with [^35S]methionine/cysteine as described in Methods for Example 1.
Metabolic labeling. HT-p21-9 cells were seeded at 25,000 cells/well in 12-well plates. On the next day, cells were treated with drugs. After 24 h, cells were labeled with 30 μCi [^35S]methionine/cysteine (Amersham) per ml of Met/Cys-free Dulbecco's modified Eagle's medium (Invitrogen) for 1 h at 37° C. Cells were washed with PBS and lysed in 1% SDS, with 0.5% BSA. […] Filters were air-dried and counted using liquid scintillation counter.

[2] = test system: WI-38-tert cells; experiment: Senescence / quiescence in WI-38-tert fibroblasts
Description: FIG. 4. […] HT-p21-a cells were treated with IPTG and infected with Ad-p53. After 3 days, cells were photographed (original magnification ×200): Upper panel. Under blue light to visualize cells expressing p53 (green cells). Lower panel. Under visible light to visualize all cells. Red arrows indicate cells lacking p53 expression. All of these cells show large, flat cell morphology. Green arrows indicate cells expressing p53. b-d. […] After 1 day, cells were lysed and immunoblot was performed as described in Methods for Example 1. c. […] Cells were then stained for beta-Gal activity and microphotographed. Scale bar—50 μm.d. […] Cells were then trypsinized and counted. […] Results are shown as percent of control.
FIG. 11. Effects of Ad-p21 and Ad-p53 on senescent morphology in WI-38-tert fibroblasts. WI-38-tert cells were infected with either p21-expressing adenovirus (Ad-p21) or p53-expressing adenovirus (Ad-p53) or both. After 3 days, cells were stained for beta-Gal.
(§2) Cell lines and reagents. HT-p21-9 and HT-p21-a cells are derivatives of HT1080 human fibrosarcoma cells, where p21 expression can be turned on or off using isopropyl-thio-galactosidase (IPTG) (7, 16, 28, 29, 36). […] HT-p16 cells are derivatives of HT1080 cells in which p16 expression can be turned on or off using IPTG (16, 36). WI-38-Tert, WI-38 are fibroblasts immortalized by telomerase. HT-p21-GSE56 cells: p53 inhibiting peptide GSE56 (18) was introduced into HT1080 p21-9 cells via a retroviral vector LXSE (37). Cells were grown in high glucose DMEM with 10% FC2 serum. WI-38-tert cells were grown in low glucose DMEM with 10% FCS. Rapamycin was obtained from LC Laboratories (Woburn, Mass.). IPTG (final concentration of 50 μg/ml) and FC2 were obtained from Sigma-Aldrich (St. Louis, Mo.).
Beta-galactosidase staining Beta-gal staining was performed using Senescence-galactosidase staining kit (Cell Signaling Technology).

[3] = test system: HT-p21-GSE56 cells; experiment: Proliferation, senescence and proliferative potential of HT-p21-GSE56 cells (p53 function blocked); details: 3 days, washed, fresh medium
Description: Cell lines and reagents. […] WI-38-Tert, WI-38 are fibroblasts immortalized by telomerase. […] Cells were grown in high glucose DMEM with 10% FC2 serum. WI-38-tert cells were grown in low glucose DMEM with 10% FCS. Rapamycin was obtained from LC Laboratories (Woburn, Mass.). IPTG (final concentration of 50 μg/ml) and FC2 were obtained from Sigma-Aldrich (St. Louis, Mo.).

[4] = test system: p53; experiment: Immunoblot for p53 and p21 in HT-p21-9 and HT-p21-GSE56 cells
Description: Control cells were left untreated (no IPTG). After 1 day, cells were lysed and immunoblot was performed. b. […] As a negative control, parental cells were treated with nutlin-3b (open squares).c-d. […] Control cells were left untreated (no IPTG). c. Morphology. After 3 days, cells were stained for beta-Gal. Scale bars—50 μm.d. Colony formation. After 3 days, cells were washed and incubated in fresh medium w/o drugs for an additional 9 days. Plates were stained with crystal violet and photographed. e. Proliferative potential (PP). After 3 days, HT-p21-GSE56 cells were washed and incubated in fresh medium w/o drugs. Cells were counted and results are shown as percent of IPTG alone.
as §2
Immunoblot analysis. Proteins were separated on 4-15% gradient Tris-HCl gels (Bio-Rad). The following antibodies were used: mouse anti-actin from Santa Cruz Biotechnology, rabbit anti-phospho-S6 (Ser240/244) and (Ser235/236), mouse anti-S6, mouse anti-phospho-p70 S6 kinase (Thr389), mouse anti-p21 and anti-p53, rabbit anti-phospho-4E-BP1 (Thr37/46) from Cell Signaling; mouse anti-4E-BP1 from Invitrogen, mouse anti-p53 (Ab-6) from Calbiochem.

[5] = test system: HT-p21-9 cells; experiment: Protein content per cell (cellular hypertrophy), IPTG-treated HT-p21-9 cells; details: days 2-5
Description: as §1

SMILES: COc1ccc(C2=N[C@@H](c3ccc(Cl)cc3)[C@@H](c3ccc(Cl)cc3)N2C(=O)N2CCNC(=O)C2)c(OC(C)C)c1 [nutlin-3a]
- protein synthesis ([35S]methionine/cysteine incorporation) [1]: inhibited ^35S-methionine/cysteine incorporation in IPTG-treated HT-p21-9 cells in a dose-dependent manner
- senescence induced by H2O2 ([2]; 10 μM nutlin-3a 3 days, washed, 3 more days, beta-Gal): suppressed senescence induced by H2O2
- proliferative potential in H2O2-treated cells ([2]; 10 μM nutlin-3a 3 days, washed, 6 more days): partially preserved proliferative potential
- type of arrest in WI-38-tert cells ([2]; compound alone): caused quiescence
- colony formation and proliferative potential (PP) in IPTG-treated HT-p21-GSE56 cells [3]: did not preserve colony formation and proliferative potential (PP)
- induction of p21 by IPTG in HT-p21-GSE56 cells ([4]; 1 day): did not affect this induction
- p53 levels in HT-p21-GSE56 cells ([4]; 1 day): did not affect p53 levels in HT-p21-GSE56 cells
- p53 levels in HT-p21 cells ([4]; 1 day): induced p53 in HT-p21 cells
- levels of p21 induced by IPTG ([4]; HT-p21 cells, IPTG plus compound): neither abrogated nor diminished the levels of p21; also recorded: did not prevent induction of p21 by IPTG
- protein content per cell [5]: decreased the protein content per cell
